According to PubChem BioAssay AID248 (DTP/NCI, 2004):
Several values for one entry are separate records, joined by “and”; a condition that tells them apart may be missing. Equal entries are not always repeated. Inconclusive results and toxic doses are left out.

System: L1210 leukemia ip in BDF1 mice, survival T/C
Experiment: NCI In Vivo Anticancer Drug Screen. Data for tumor model L1210 Leukemia (intraperitoneal) in B6D2F1 (BDF1) mice
Details: endpoint: mean survival time, higher = longer survival
How it was run: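 Survival endpoint. Drug-treated group vs vehicle group, expressed as T divided by C. Tumor passaged by transplantation.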

[1] = dose: 100.0 mg/kg/injection, schedule: Q04DX003 (ip), vehicle: Klucel (hydroxypropylcellulose) (HPC)
[2] = dose: 200.0 mg/kg/injection, schedule: Q04DX003 (ip), vehicle: Klucel (hydroxypropylcellulose) (HPC)
[3] = dose: 400.0 mg/kg/injection, schedule: Q04DX003 (ip), vehicle: Klucel (hydroxypropylcellulose) (HPC)

**Q.** For `O=NN(CCCl)C(=O)Nc1ccc(Br)cc1`, which T/C (dose: 12.0 mg/kg/injection, schedule: Q01DX009 (ip), vehicle: carboxymethylcellulose (CMC)) is on record?
**A.** 122 % of control

**Q.** What about the T/C (dose: 12.0 mg/kg/injection, schedule: Q01DX015 (ip), vehicle: carboxymethylcellulose (CMC)) of the same compound?
**A.** 124 % of control

**Q.** And the T/C (dose: 29.0 mg/kg/injection, schedule: Q01DX015 (ip), vehicle: carboxymethylcellulose (CMC))?
**A.** 154 % of control

**Q.** What about the T/C (dose: 44.0 mg/kg/injection, schedule: Q01DX015 (ip), vehicle: carboxymethylcellulose (CMC)) of the same compound?
**A.** 114 % of control and 89 % of control

**Q.** And the T/C (dose: 100.0 mg/kg/injection, schedule: Q01DX001 (ip), vehicle: carboxymethylcellulose (CMC))?
**A.** 157 % of control

**Q.** `BrCCCCOCBr` was tested. Which T/C (dose: 50.0 mg/kg/injection, schedule: Q01DX009 (ip), vehicle: saline with Tween-80) did it give?
**A.** 97 % of control

**Q.** What about the T/C (dose: 100.0 mg/kg/injection, schedule: Q01DX009 (ip), vehicle: saline with Tween-80) of the same compound?
**A.** 101 % of control

**Q.** And the T/C (dose: 200.0 mg/kg/injection, schedule: Q01DX009 (ip), vehicle: saline with Tween-80)?
**A.** 106 % of control

**Q.** Which T/C (dose: 100.0 mg/kg/injection, schedule: Q04DX002 (ip), vehicle: saline with Tween-80) does the source give for `CCSCC(C)O` (configuration not stated) here?
**A.** 100 % of control

**Q.** What about the T/C (dose: 200.0 mg/kg/injection, schedule: Q04DX002 (ip), vehicle: saline with Tween-80) of the same compound?
**A.** 100 % of control

**Q.** What about the T/C (dose: 400.0 mg/kg/injection, schedule: Q04DX002 (ip), vehicle: saline with Tween-80) of the same compound?
**A.** 94 % of control

**Q.** For `O=C(Nc1ccc(CCC2=NCCN2)cc1)c1ccc(C(=O)Nc2ccc(CCC3=NCCN3)cc2)cc1`, which T/C (dose: 30.0 mg/kg/injection, schedule: Q01DX Z (oral), vehicle: saline) is on record?
**A.** 101 % of control

**Q.** What about the T/C (dose: 60.0 mg/kg/injection, schedule: Q01DX Z (oral), vehicle: saline) of the same compound?
**A.** 103 % of control

**Q.** And the T/C (dose: 120.0 mg/kg/injection, schedule: Q01DX Z (oral), vehicle: saline)?
**A.** 106 % of control

**Q.** What about the T/C (dose: 240.0 mg/kg/injection, schedule: Q01DX Z (oral), vehicle: saline) of the same compound?
**A.** 97 % of control

**Q.** Which results are given for `COC(=O)Nc1nc2ccc(Br)cc2[nH]1`?
**A.** T/C (dose: 100.0 mg/kg/injection, schedule: Q01DX009 (ip), vehicle: Klucel (hydroxypropylcellulose) (HPC)): 100 % of control; T/C [1]: 92 % of control; T/C (dose: 200.0 mg/kg/injection, schedule: Q01DX009 (ip), vehicle: Klucel (hydroxypropylcellulose) (HPC)): 100 % of control; T/C [2]: 96 % of control; T/C (dose: 400.0 mg/kg/injection, schedule: Q01DX009 (ip), vehicle: Klucel (hydroxypropylcellulose) (HPC)): 109 % of control; T/C [3]: 94 % of control

**Q.** Which results are given for `Cc1ccc(Nc2nnc(N=Nc3ccccc3)s2)cc1C`?
**A.** T/C (dose: 100.0 mg/kg/injection, schedule: Q01DX009 (ip), vehicle: other): 101 % of control; T/C (dose: 200.0 mg/kg/injection, schedule: Q01DX009 (ip), vehicle: other): 98 % of control; T/C (dose: 400.0 mg/kg/injection, schedule: Q01DX009 (ip), vehicle: other): 98 % of control

**Q.** What does the source list for `CNC(=O)C1OC(n2cnc3c(N)ncnc32)C(O)C1O` (configuration not stated)?
**A.** T/C (dose: 0.19 mg/kg/injection, schedule: Q01DX005 (ip), vehicle: saline): 110 % of control; T/C (dose: 0.19 mg/kg/injection, schedule: Q01DX009 (ip), vehicle: saline): 114 % of control; T/C (dose: 0.39 mg/kg/injection, schedule: Q01DX005 (ip), vehicle: saline): 105 % of control; T/C (dose: 0.39 mg/kg/injection, schedule: Q01DX009 (ip), vehicle: saline): 93 % of control; T/C (dose: 0.78 mg/kg/injection, schedule: Q01DX005 (ip), vehicle: saline): 116 % of control; T/C (dose: 0.78 mg/kg/injection, schedule: Q01DX009 (ip), vehicle: saline): 103 % of control

**Q.** Which T/C (dose: 100.0 mg/kg/injection, schedule: Q04DX002 (ip), vehicle: other) does the source give for `CC(C)CCCC(C)C1CCC2C3CC4C(F)(Cl)C45CC4(CCC5(C)C3CCC12C)OCCO4` (configuration not stated) here?
**A.** 87 % of control

**Q.** And the T/C (dose: 200.0 mg/kg/injection, schedule: Q04DX002 (ip), vehicle: other)?
**A.** 114 % of control

**Q.** What about the T/C (dose: 400.0 mg/kg/injection, schedule: Q04DX002 (ip), vehicle: other) of the same compound?
**A.** 93 % of control

**Q.** For `Cc1cccc(C)c1CNC(=O)NCCCl`, which T/C [1] is on record?
**A.** 98 % of control

**Q.** What about the T/C [2] of the same compound?
**A.** 95 % of control

**Q.** And the T/C [3]?
**A.** 104 % of control

**Q.** For `CN(C)CCOC(=O)c1ccc(CBr)cc1`, which T/C (dose: 10.0 mg/kg/injection, schedule: Q01DX009 (ip), vehicle: saline) is on record?
**A.** 97 % of control

**Q.** And the T/C (dose: 20.0 mg/kg/injection, schedule: Q01DX009 (ip), vehicle: saline)?
**A.** 95 % of control

**Q.** What about the T/C (dose: 40.0 mg/kg/injection, schedule: Q01DX009 (ip), vehicle: saline) of the same compound?
**A.** 93 % of control

**Q.** And the T/C (dose: 87.5 mg/kg/injection, schedule: Q01DX009 (ip), vehicle: saline)?
**A.** 101 % of control

**Q.** `NC(=S)N/N=C/c1ccc[nH]1` was tested. Which T/C (dose: 100.0 mg/kg/injection, schedule: Q01DX001 (ip), vehicle: saline with Tween-80) did it give?
**A.** 93 % of control

**Q.** What about the T/C (dose: 200.0 mg/kg/injection, schedule: Q01DX001 (ip), vehicle: saline with Tween-80) of the same compound?
**A.** 98 % of control
